# Assay results as given in patent publication EP1263420B1 (priority 2000, dated 2001).
# Entries after “also recorded” stand apart in the source; their conditions may differ.
# What was measured:
# [1] = tested on: urethane-induced lung cancer; details: orally administered, over 300 mg/kg weekly; cited from earlier work
# [2] = tested on: liver RARs; experiment: Western blot of rat liver samples after inhaled 13-cis RA; type: in vivo
# Experimental: Rats (n=97) (Sprague-Dawley from Charles River) were divided into five experimental groups and were given varying amounts of 13-cis RA by inhalation. The experimental groups were as follows (Table 4) :1.Vehicle (10/9 mix of PEG 300 and Ethanol with 0.5% of ascorbic acid and 0.5% phosphatidyl choline) control, day 1: rats (19) inhaled vehicle for 2 hr for one day; 2. High dose 13-cis RA, day 1: rats (22) inhaled a solution containing 13-cis-RA at a concentration of 104µg/liter (projected daily inhaled dose 10mg/kg body weight) for 2 hr for one day; 3. High dose 13-cis RA, day 17: rats (22) inhaled the same solution as in 2 for 2 hr each day for 17 days; 4. Vehicle control, day 28: rats (16) inhaled vehicle as for group 1 for a period of 28 days; 5. Middle dose 13-cis RA, day 28: rats (18) inhaled a solution containing 13-cis-RA at a concentration of 31µg/liter (projected daily inhaled dose 3mg/kg body weight) for 2 hr for each of 28 days.
# Male rats (n=23) (Sprague-Dawley from Charles River) were divided into six experimental groups and were given varying amounts of 13-cis RA through an inhalant apparatus once daily for different times each day for 14 days. The experimental groups were as follows (Table 1) :1.Vehicle control : rats (3) inhaled vehicle for 240 minutes; 2. Low dose 13-cis RA: rats (4) inhaled a solution containing 13-cis RA at a concentration of 62.2µg/liter (inhaled dose 115.0µg/kg body weight) in 5 minutes; 3. Low-Middle dose 13-cis RA : rats (4) inhaled a solution containing 13-cis RA at a concentration of 62.2µg/liter (inhaled dose 334.4µg/kg body weight) in 15 minutes; 4.Middle dose 13-cis RA: rats (4) inhaled a solution containing 13-cis RA at a concentration of 62.2µg/liter (inhaled dose 1012.3µg/kg body weight) in 45 minutes; 5. Middle-High dose 13-cis RA : rats (4) inhaled a solution containing 13-cis RA at a concentration of 62.2µg/liter (inhaled dose 2843.4µg/kg body weight) in 120 minutes; 6. High dose 13-cis RA : rats (4) inhaled a solution containing 13-cis RA at a concentration of 62.2µg/liter (inhaled dose 5935.6µg/kg body weight) in 240 minutes. […]
structure (smiles),measurement,setting,value
"CC1=C(/C=C/C(C)=C/C=C/C(C)=C\C(=O)O)C(C)(C)CCC1 [13-cis RA, 13-cis-Retinoic Acid]",prevention of urethane-induced lung cancer,[1],failed to prevent urethane-induced lung cancer
same,effect on liver RARs,"[2]; inhaled 13-cis RA, rats, summary statement",failed to have any significant effect on liver RARs; also recorded: has no effect on liver RARs
same,increase in liver RARs,"[2]; rat liver, experiment A (same rats as Fig 2A), not shown",failed to show any increase in RARs
same,response of liver RARs,"[2]; rat liver, experiment B, 5 to 240 minutes daily, 14 days, not shown",not responsive
